Laboratory results reported in patent US6344457B1, “Amino acid derivatives inhibiting extracellular matrix metalloproteinase and TNF alpha release” (Chiesi Farmaceutici S.p.A., priority 1997, dated 2002).

What was measured:
[1] = target: T1, 72 kDa gelatinase of human origin (Homo sapiens, UniProt P08253); experiment: Activity on gelatinase, synthetic substrate; type: biochemical; settings: performed on synthetic substrate; read-out: C150 (nM) gelatinase 72 kDa**
T1 sequence (P08253 110-660): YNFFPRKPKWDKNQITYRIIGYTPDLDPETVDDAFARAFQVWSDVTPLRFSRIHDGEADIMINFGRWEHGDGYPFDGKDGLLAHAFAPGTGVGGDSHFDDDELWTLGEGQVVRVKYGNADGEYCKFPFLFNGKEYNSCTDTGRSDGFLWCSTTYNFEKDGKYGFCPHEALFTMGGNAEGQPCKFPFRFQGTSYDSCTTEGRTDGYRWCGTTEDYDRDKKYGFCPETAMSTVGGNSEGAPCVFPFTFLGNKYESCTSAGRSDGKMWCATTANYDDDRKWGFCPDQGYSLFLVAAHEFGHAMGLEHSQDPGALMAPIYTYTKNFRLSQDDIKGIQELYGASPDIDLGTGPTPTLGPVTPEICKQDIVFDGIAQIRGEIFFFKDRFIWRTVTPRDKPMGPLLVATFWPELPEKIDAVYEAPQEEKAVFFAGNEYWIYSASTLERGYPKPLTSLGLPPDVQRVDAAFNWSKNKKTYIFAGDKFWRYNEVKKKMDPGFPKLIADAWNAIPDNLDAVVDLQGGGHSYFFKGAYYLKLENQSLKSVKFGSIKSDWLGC
Experimental: The anti-gelatinase activity of the compounds according to the invention was determined on 72 kDa gelatinase of human origin, in accordance with the operating mode described by Knight, C. G., Willenbrock, F., Murphy, G. (FEBS Letters, 296 (3), 263-266, 1992).
The gelatinase was incubated at 37° C. for 10 minutes, and its activity was determined by the increase in fluorescence of the product of Mca-Pro-Leu breakdown of the Mca-Pro-Leu-Gly-Leu-Dpa-Ala-Arg-NH2 synthetic substrate.
The inhibiting concentration C150 for each compound was determined by measurement of the activity of the enzyme in the presence of the inhibitor at a concentration ranging between 10^−7 and 10^−12 M (the inhibitor is dissolved at a concentration of 10^−2 M in DMSO, then diluted successively by tenths in DMSO to 10^−4 M, then in the buffer: Tris, HCl 50 mM+0.05% Brij 35; CaCl2 10 mM; NaCl 0.15 M).

[2] = target: 92 kDa gelatinase of human origin (Homo sapiens, UniProt P14780); experiment: Activity on gelatinase, radiomarked gelatin; type: biochemical; settings: test performed with radiomarked gelatin; read-out: C150 (nM) gelatinase 92 kDa*
How it was run: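 Inhibiting concentration (C150) derived from enzyme activity across inhibitor levels of 10^−7 to 10^−12 M. Read-out is soluble peptide released from radiolabelled gelatin by human 92 kDa gelatinase after 16 hours at 37° C.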

[3] = target: stromelysine of human origin (Homo sapiens, UniProt P08254); experiment: Activity on stromelysine; type: biochemical; settings: radiomarked transferrin, 37° C., 16 hours; read-out: C150 (nM) stromelysine
Experimental: The stromelysine was incubated at 37° C. for 16 hours with radiomarked transferrin, and its activity was determined by the release of the soluble peptides produced by the enzymatic breakdown of the transferrin. The inhibiting concentration C150 for each compound was determined by measurement of the activity of the enzyme in the presence of the inhibitor at a concentration ranging between 10^−7 and 10^−12 M (the inhibitor is dissolved in the same manner as for collagenase).

[4] = tested on: release of TNF from the peritoneal macrophages of mice stimulated by LPS; experiment: Inhibition of the production of TNF in vitro; type: cell-based; settings: Peritoneal macrophage; mouse peritoneal macrophages, LPS 100 ng/ml; read-out: C150 (μM) TNF
[5] = tested on: femoral head cartilage of the rat implanted subcutaneously in mice; experiment: Inhibition of the breakdown of cartilage in vivo; settings: 10 mg/kg i.p. twice a day, 21 days
Experimental: The activities of the compounds of example 1 and example 10 comparatively to the compound BB16 were determined in a model of breakdown of cartilage in accordance with the operating mode described by Bottomley, K. M. K., Griffith, S. R. J., Rising, T. G., Steward, A. (Brit. J. Pharmacol. 21, 287-289, 1988). Femoral head cartilage of the rat, wrapped in sterile cotton, is implanted subcutaneously on the backs of mice. After 21 days, the mice are euthanized, the cartilages recovered and weighed. The animals are treated each day, twice a day, with one 10-mg/kg dose i.p.

[6] = target: T2, collagenase of the human monocytic stock U937 (Homo sapiens, UniProt P03956); experiment: Activity on collagenase; type: biochemical; settings: radiomarked collagen, 27° C., 16 hours; read-out: C150 (nM) collagenase
T2 construct: the collagenase of the human monocytic stock U937; endogenous in cells; host or cells: U937 human monocytic cell line
T2 sequence (P03956 100-469): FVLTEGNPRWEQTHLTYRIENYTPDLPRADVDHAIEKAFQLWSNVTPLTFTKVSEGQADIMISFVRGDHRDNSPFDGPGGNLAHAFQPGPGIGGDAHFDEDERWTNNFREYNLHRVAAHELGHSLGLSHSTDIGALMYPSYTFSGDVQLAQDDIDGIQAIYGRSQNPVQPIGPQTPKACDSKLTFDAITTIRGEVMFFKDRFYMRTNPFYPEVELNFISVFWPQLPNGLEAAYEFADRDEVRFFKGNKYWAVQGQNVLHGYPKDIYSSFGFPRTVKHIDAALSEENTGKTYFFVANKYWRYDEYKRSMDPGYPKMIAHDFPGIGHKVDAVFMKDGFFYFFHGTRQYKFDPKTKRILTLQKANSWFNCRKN

[7] = tested on: female Balb/c mice (D-galactosamine + LPS shock); experiment: Inhibition of septic shock; type: in vivo; settings: i.p. 30 minutes prior to induction of the shock; survival over 48 hours
Experimental: Septic shock is induced in female Balb/c mice in accordance with the procedure described by Mohler, K. M. et al. (Nature, 370, 218-220, 1994). Briefly, the shock is induced by i.p. injection of 20 mg of D-galactosamine and i.v. injection of 20 ng of LPS. The survival of the animals is evaluated for the following 48 hours.
The products to be tested are injected i.p. 30 minutes prior to induction of the shock. The compounds according to the invention protect from shock from 10 to 50 mg/kg. For instance, the compound of example 10 protects at 50 mg/kg.

metalloproteinase (MMP) = settings: J. Am. Chem. Soc. (1995), 117, 4671-4682; cited from earlier work

92 kDa gelatinase of human origin, sequence (P14780 94-707): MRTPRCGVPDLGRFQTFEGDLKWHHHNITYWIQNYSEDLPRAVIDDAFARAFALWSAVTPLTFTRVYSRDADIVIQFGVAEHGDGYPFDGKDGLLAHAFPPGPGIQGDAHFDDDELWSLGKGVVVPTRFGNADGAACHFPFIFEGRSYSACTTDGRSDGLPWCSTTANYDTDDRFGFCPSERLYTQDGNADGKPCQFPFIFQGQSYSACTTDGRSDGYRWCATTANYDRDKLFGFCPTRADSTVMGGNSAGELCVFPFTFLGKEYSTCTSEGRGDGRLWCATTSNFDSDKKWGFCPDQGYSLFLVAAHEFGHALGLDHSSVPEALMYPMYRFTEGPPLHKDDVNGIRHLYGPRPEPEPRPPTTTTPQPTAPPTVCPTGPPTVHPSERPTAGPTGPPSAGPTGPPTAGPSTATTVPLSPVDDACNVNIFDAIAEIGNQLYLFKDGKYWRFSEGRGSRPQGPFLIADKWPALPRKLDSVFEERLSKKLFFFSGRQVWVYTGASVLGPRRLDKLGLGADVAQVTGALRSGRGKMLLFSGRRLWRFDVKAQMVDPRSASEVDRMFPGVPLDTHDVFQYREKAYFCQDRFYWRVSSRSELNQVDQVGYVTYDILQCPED
stromelysine of human origin, sequence (P08254 100-477): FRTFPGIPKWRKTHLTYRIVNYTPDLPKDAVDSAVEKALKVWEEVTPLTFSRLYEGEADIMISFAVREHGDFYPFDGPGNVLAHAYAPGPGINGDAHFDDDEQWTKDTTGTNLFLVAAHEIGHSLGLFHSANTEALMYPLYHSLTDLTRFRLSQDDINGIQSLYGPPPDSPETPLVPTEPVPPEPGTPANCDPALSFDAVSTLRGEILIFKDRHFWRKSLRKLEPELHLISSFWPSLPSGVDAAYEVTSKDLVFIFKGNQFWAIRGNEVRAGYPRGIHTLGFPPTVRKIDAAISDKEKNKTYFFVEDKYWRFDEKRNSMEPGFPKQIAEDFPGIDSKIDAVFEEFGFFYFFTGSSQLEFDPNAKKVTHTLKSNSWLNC

| IC50 [1] [nM] | IC50 [2] [nM] | IC50 [3] [nM] | IC50 [4] [µM] | IC50 [6] [nM] | Structure (SMILES) | inhibition of weight loss of the cartilage [5] [%] | dose that protects from septic shock [7] [mg/kg] | loss of activity (factor) on substitution of the hydrogen with a methyl, compound V versus compound VI (metalloproteinase (MMP)) |
| --- | --- | --- | --- | --- | --- | --- | --- | --- |
| 1 | 1 | 15 | 1 | 5 | CNC(=O)[C@H](Cc1ccc(OC)cc1)NC(=O)[C@](O)(CC(C)C)[C@H](C)C(=O)NO [Example 1] | 42 | – | – |
| 1 | 2 | 48 | 0.4 | 4 | CNC(=O)[C@H](Cc1ccc(Cl)cc1)NC(=O)[C@](O)(CC(C)C)[C@H](C)C(=O)NO [Example 10, N-2(S) [-1(S) (hydroxycarbamoyl)-1 ethyl]-2(S) hydroxy-4-methyl pentanoyl L4-chlorophenylalanine N-methylamide] | 65 | 50 | – |
| – | – | – | – | – | CNC(=O)[C@H](Cc1c[nH]c2ccccc12)NC(=O)[C@@](C)(CC(=O)NO)CC(C)C [compound VI] | – | – | 300 |
